Measured values as given in patent publication US10011607B2, “Ethynyl derivatives” (Hoffmann-La Roche Inc., priority 2015, dated 2018).

Biological target: human mGlu4 receptor (Homo sapiens (Human), UniProt Q14833)
Experiment: Ca2+ mobilization in vitro assay on recombinant human mGlu4 expressed in HEK293 cells (PAM)
Format: cell-based
Details: for Emax: HEK293, maximal response in % of maximal stimulatory effect of saturating L-AP4, read-out: Eff. (%); for EC50: HEK293 cells, human mGlu4, in presence of EC20 of L-AP4, read-out: EC50 (nM) mGlu4PAM
Summary of the method: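 HEK293 cells stably expressing human mGlu4 at low level, Fluo-4AM loaded; compound (11 half-log dilutions) pre-incubated 10–30 min at 37 °C, then L-AP4 added at EC20 (determined daily). Peak fluorescence minus basal, normalized to saturating L-AP4; EC50, Hill slope and % Emax from four-parameter fit.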

Chain of human mGlu4 receptor (Q14833 33-912): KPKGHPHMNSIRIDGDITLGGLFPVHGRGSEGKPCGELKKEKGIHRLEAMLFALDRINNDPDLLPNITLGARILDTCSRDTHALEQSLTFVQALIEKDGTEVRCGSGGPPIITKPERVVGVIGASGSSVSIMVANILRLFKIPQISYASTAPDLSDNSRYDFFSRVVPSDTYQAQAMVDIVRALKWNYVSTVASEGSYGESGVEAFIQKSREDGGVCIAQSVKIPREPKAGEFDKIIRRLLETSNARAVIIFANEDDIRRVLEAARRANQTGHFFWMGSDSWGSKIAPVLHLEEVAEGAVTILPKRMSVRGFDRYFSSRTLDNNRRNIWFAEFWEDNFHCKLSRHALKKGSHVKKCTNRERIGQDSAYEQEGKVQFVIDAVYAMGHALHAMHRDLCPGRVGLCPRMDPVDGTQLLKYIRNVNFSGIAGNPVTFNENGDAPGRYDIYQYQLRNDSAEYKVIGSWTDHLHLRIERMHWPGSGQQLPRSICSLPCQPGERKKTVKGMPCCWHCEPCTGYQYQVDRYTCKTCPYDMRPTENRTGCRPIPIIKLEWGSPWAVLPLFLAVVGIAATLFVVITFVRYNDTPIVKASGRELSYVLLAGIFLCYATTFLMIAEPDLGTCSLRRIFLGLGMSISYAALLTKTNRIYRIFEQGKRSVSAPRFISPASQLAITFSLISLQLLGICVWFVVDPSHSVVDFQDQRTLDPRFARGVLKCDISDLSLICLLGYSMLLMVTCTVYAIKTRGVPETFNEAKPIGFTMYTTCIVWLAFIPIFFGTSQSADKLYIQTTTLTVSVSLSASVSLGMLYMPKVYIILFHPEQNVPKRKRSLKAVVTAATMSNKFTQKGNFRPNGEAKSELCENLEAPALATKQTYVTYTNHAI

In the case of `Cc1nc(N2CCN3C(=O)N(c4c(F)cc(C#Cc5ccccc5)cc4F)C(=O)C[C@@]3(C)C2=O)cn1CC(F)(F)F` [Example 61, (9aS)-7-[2,6-difluoro-4-(2-phenylethynyl)phenyl]-9a-methyl-2-[2-methyl-1-(2,2,2-trifluoroethyl)imidazol-4-yl]-4,9-dihydro-3H-pyrazino[1,2-c]pyrimidine-1,6,8-trione], the Emax is reported as 172% and the EC50 is reported as 272 nM.

Work on `Cn1ccc(N2CCN3C(=O)N(c4c(F)cc(C#Cc5ccccc5)cc4F)C(=O)C[C@@]3(C)C2=O)n1` [Example 63, (9aS)-7-[2,6-difluoro-4-(2-phenylethynyl)phenyl]-9a-methyl-2-(1-methylpyrazol-3-yl)-4,9-dihydro-3H-pyrazino[1,2-c]pyrimidine-1,6,8-trione] yielded an Emax of 136% and an EC50 of 165 nM.

With `Cn1nccc1N1CCN2C(=O)N(c3c(F)cc(C#Cc4ccccc4)cc3F)C(=O)C[C@@]2(C)C1=O` [Example 65, (9aS)-7-[2,6-difluoro-4-(2-phenylethynyl)phenyl]-9a-methyl-2-(2-methylpyrazol-3-yl)-4,9-dihydro-3H-pyrazino[1,2-c]pyrimidine-1,6,8-trione] the Emax was 92% and the EC50 was 92 nM.

`Cn1cc(N2CCN3C(=O)N(c4c(F)cc(C#Cc5ccccc5)cc4F)C(=O)C[C@@]3(C)C2=O)cn1` [Example 68, (9aS)-7-[2,6-difluoro-4-(2-phenylethynyl)phenyl]-9a-methyl-2-(1-methylpyrazol-4-yl)-4,9-dihydro-3H-pyrazino[1,2-c]pyrimidine-1,6,8-trione] showed an Emax of 135% and an EC50 of 90 nM.

`CCn1cc(N2CCN3C(=O)N(c4c(F)cc(C#Cc5ccccc5)cc4F)C(=O)C[C@@]3(C)C2=O)cn1` [Example 69, (9aS)-7-[2,6-difluoro-4-(2-phenylethynyl)phenyl]-2-(1-ethylpyrazol-4-yl)-9a-methyl-4,9-dihydro-3H-pyrazino[1,2-c]pyrimidine-1,6,8-trione] gave an Emax of 184% and an EC50 of 151 nM.

Work on `CC(C)n1cc(N2CCN3C(=O)N(c4c(F)cc(C#Cc5ccccc5)cc4F)C(=O)C[C@@]3(C)C2=O)cn1` [Example 70, (9aS)-7-[2,6-difluoro-4-(2-phenylethynyl)phenyl]-2-(1-isopropylpyrazol-4-yl)-9a-methyl-4,9-dihydro-3H-pyrazino[1,2-c]pyrimidine-1,6,8-trione] yielded an Emax of 150% and an EC50 of 139 nM.

Work on `C[C@@]12CC(=O)N(c3c(F)cc(C#Cc4ccccc4)cc3F)C(=O)N1CCN(c1cn[nH]c1)C2=O` [Example 71, (9aS)-7-[2,6-difluoro-4-(2-phenylethynyl)phenyl]-9a-methyl-2-(1H-pyrazol-4-yl)-4,9-dihydro-3H-pyrazino[1,2-c]pyrimidine-1,6,8-trione] yielded an Emax of 182% and an EC50 of 101 nM.

For `COCCCn1cc(N2CCN3C(=O)N(c4c(F)cc(C#Cc5ccccc5)cc4F)C(=O)C[C@@]3(C)C2=O)cn1` [Example 72, (9aS)-7-[2,6-difluoro-4-(2-phenylethynyl)phenyl]-2-[1-(3-methoxypropyl)pyrazol-4-yl]-9a-methyl-4,9-dihydro-3H-pyrazino[1,2-c]pyrimidine-1,6,8-trione], the Emax was 149% and the EC50 was 122 nM.

Work on `Cn1cnc(N2CCN3C(=O)N(c4c(F)cc(C#Cc5ccccc5)cc4F)C(=O)C[C@@]3(C)C2=O)n1` [Example 73, (9aS)-7-[2,6-difluoro-4-(2-phenylethynyl)phenyl]-9a-methyl-2-(1-methyl-1,2,4-triazol-3-yl)-4,9-dihydro-3H-pyrazino[1,2-c]pyrimidine-1,6,8-trione] yielded an Emax of 138% and an EC50 of 244 nM.

`Cn1cc(N2CCN3C(=O)N(c4c(F)cc(C#Cc5ccccc5)cc4Cl)C(=O)C[C@@]3(C)C2=O)cn1` [Example 78, (9aS)-7-[2-chloro-6-fluoro-4-(2-phenylethynyl)phenyl]-9a-methyl-2-(1-methylpyrazol-4-yl)-4,9-dihydro-3H-pyrazino[1,2-c]pyrimidine-1,6,8-trione] was tested, and the Emax was 117% and the EC50 was 75 nM.

Compound `COCCN1CCN2C(=O)N(c3c(F)cc(C#Cc4ccccc4)cc3F)C(=O)C[C@@]2(C)C1=O` [Example 79, (9aS)-7-[2,6-difluoro-4-(2-phenylethynyl)phenyl]-2-(2-methoxyethyl)-9a-methyl-4,9-dihydro-3H-pyrazino[1,2-c]pyrimidine-1,6,8-trione] has an Emax of 122% and an EC50 of 137 nM.

Work on `COCCCN1CCN2C(=O)N(c3c(F)cc(C#Cc4ccccc4)cc3F)C(=O)C[C@@]2(C)C1=O` [Example 80, (9aS)-7-[2,6-difluoro-4-(2-phenylethynyl)phenyl]-2-(3-methoxypropyl)-9a-methyl-4,9-dihydro-3H-pyrazino[1,2-c]pyrimidine-1,6,8-trione] yielded an Emax of 132% and an EC50 of 135 nM.

Compound `C[C@@]12CC(=O)N(c3c(F)cc(C#Cc4ccccc4)cc3F)C(=O)N1CCN(CC(F)(F)F)C2=O` [Example 81, (9aS)-7-[2,6-difluoro-4-(2-phenylethynyl)phenyl]-9a-methyl-2-(2,2,2-trifluoroethyl)-4,9-dihydro-3H-pyrazino[1,2-c]pyrimidine-1,6,8-trione] has an Emax of 172% and an EC50 of 112 nM.

`CCOC(=O)CCCN1CCN2C(=O)N(c3c(F)cc(C#Cc4ccccc4)cc3F)C(=O)C[C@@]2(C)C1=O` [Example 82, Ethyl 4-[(9aS)-7-[2,6-difluoro-4-(2-phenylethynyl)phenyl]-9a-methyl-1,6,8-trioxo-4,9-dihydro-3H-pyrazino[1,2-c]pyrimidin-2-yl]butanoate] showed an Emax of 134% and an EC50 of 201 nM.

`C[C@@]12CC(=O)N(c3c(F)cc(C#Cc4ccccc4)cc3F)C(=O)N1CCN(Cc1ccccc1F)C2=O` [Example 89, (9aS)-7-[2,6-difluoro-4-(2-phenylethynyl)phenyl]-2-[(2-fluorophenyl)methyl]-9a-methyl-4,9-dihydro-3H-pyrazino[1,2-c]pyrimidine-1,6,8-trione] was tested, and the Emax was 98% and the EC50 was 149 nM.

For `C[C@@]12CC(=O)N(c3c(F)cc(C#Cc4ccccc4)cc3F)C(=O)N1CCN(Cc1cccc(F)c1)C2=O` [Example 90, (9aS)-7-[2,6-difluoro-4-(2-phenylethynyl)phenyl]-2-[(3-fluorophenyl)methyl]-9a-methyl-4,9-dihydro-3H-pyrazino[1,2-c]pyrimidine-1,6,8-trione], the Emax was 109% and the EC50 was 187 nM.

In the case of `C[C@@]12CC(=O)N(c3c(F)cc(C#Cc4ccccc4)cc3F)C(=O)N1CCN(Cc1ccc(F)cc1)C2=O` [Example 91, (9aS)-7-[2,6-difluoro-4-(2-phenylethynyl)phenyl]-2-[(4-fluorophenyl)methyl]-9a-methyl-4,9-dihydro-3H-pyrazino[1,2-c]pyrimidine-1,6,8-trione], the Emax is reported as 101% and the EC50 is reported as 147 nM.

For `Cn1nccc1CN1CCN2C(=O)N(c3c(F)cc(C#Cc4ccccc4)cc3F)C(=O)C[C@@]2(C)C1=O` [Example 97, (9aS)-7-[2,6-difluoro-4-(2-phenylethynyl)phenyl]-9a-methyl-2-[(2-methylpyrazol-3-yl)methyl]-4,9-dihydro-3H-pyrazino[1,2-c]pyrimidine-1,6,8-trione], the Emax was 128% and the EC50 was 76 nM.

Work on `C[C@@]12CC(=O)N(c3c(F)cc(C#Cc4ccccc4)cc3F)C(=O)N1CCN(CCn1ccnc1)C2=O` [Example 98, (9aS)-7-[2,6-difluoro-4-(2-phenylethynyl)phenyl]-2-(2-imidazol-1-ylethyl)-9a-methyl-4,9-dihydro-3H-pyrazino[1,2-c]pyrimidine-1,6,8-trione] yielded an Emax of 135% and an EC50 of 283 nM.

`Cc1nccn1CCN1CCN2C(=O)N(c3c(F)cc(C#Cc4ccccc4)cc3F)C(=O)C[C@@]2(C)C1=O` [Example 99, (9aS)-7-[2,6-difluoro-4-(2-phenylethynyl)phenyl]-9a-methyl-2-[2-(2-methylimidazol-1-yl)ethyl]-4,9-dihydro-3H-pyrazino[1,2-c]pyrimidine-1,6,8-trione] showed an Emax of 146% and an EC50 of 282 nM.

`Cn1nccc1CCN1CCN2C(=O)N(c3c(F)cc(C#Cc4ccccc4)cc3F)C(=O)C[C@@]2(C)C1=O` [Example 100, (9aS)-7-[2,6-difluoro-4-(2-phenylethynyl)phenyl]-9a-methyl-2-[2-(2-methylpyrazol-3-yl)ethyl]-4,9-dihydro-3H-pyrazino[1,2-c]pyrimidine-1,6,8-trione] was tested, and the Emax was 123% and the EC50 was 219 nM.

In the case of `Cn1cc(CCN2CCN3C(=O)N(c4c(F)cc(C#Cc5ccccc5)cc4F)C(=O)C[C@@]3(C)C2=O)cn1` [Example 101, (9aS)-7-[2,6-difluoro-4-(2-phenylethynyl)phenyl]-9a-methyl-2-[2-(1-methylpyrazol-4-yl)ethyl]-4,9-dihydro-3H-pyrazino[1,2-c]pyrimidine-1,6,8-trione], the Emax is reported as 129% and the EC50 is reported as 125 nM.

`COC[C@@]12CC(=O)N(c3c(F)cc(C#Cc4ccccc4)cc3F)C(=O)N1CCN(c1cccnc1)C2=O` [Example 103, (9aR)-7-[2,6-difluoro-4-(2-phenylethynyl)phenyl]-9a-(methoxymethyl)-2-(3-pyridyl)-4,9-dihydro-3H-pyrazino[1,2-c]pyrimidine-1,6,8-trione] showed an Emax of 118% and an EC50 of 169 nM.

`COC[C@@]12CC(=O)N(c3c(F)cc(C#Cc4ccccc4)cc3F)C(=O)N1CCN(c1cnn(C)c1)C2=O` [Example 105, (9aR)-7-[2,6-difluoro-4-(2-phenylethynyl)phenyl]-9a-(methoxymethyl)-2-(1-methylpyrazol-4-yl)-4,9-dihydro-3H-pyrazino[1,2-c]pyrimidine-1,6,8-trione] gave an Emax of 144% and an EC50 of 61 nM.

In the case of `CC[C@@]12CC(=O)N(c3c(F)cc(C#Cc4ccccc4)cc3F)C(=O)N1CCN(c1cccnc1)C2=O` [Example 106, (9aS)-7-[2,6-difluoro-4-(2-phenylethynyl)phenyl]-9a-ethyl-2-(3-pyridyl)-4,9-dihydro-3H-pyrazino[1,2-c]pyrimidine-1,6,8-trione], the Emax is reported as 112% and the EC50 is reported as 95 nM.
